This passage reports Ki results from patent publication US7652020B2, “Compounds for the treatment of inflammatory disorders” (Schering Corporation, priority 2004, dated 2010).

The assay addresses T1, purified catalytic domain of recombinant human TACE (rhTACEc) (Homo sapiens, UniProt P78536, N452Q/S266A).
T1 construct: Residue 215 to 477 with two mutation (S266A and N452Q) and a 6×His tail; 6xHis (C); made in house; host or cells: baculovirus/Hi5 insect cells
The experiment in a line: TACE kinetic assay: cleavage of internally quenched peptide substrate SPDL-3, fluorescence. To be noted: TACE inhibitory activity, class symbols; read-out: Ki. Type of assay: biochemical.

A value given as a limit tells only on which side of the number the result lay.

One may read the Ki as a dissociation constant, usually derived from enzyme kinetics or from competition with a known ligand.

T1 sequence (P78536 215-477 S266A/N452Q): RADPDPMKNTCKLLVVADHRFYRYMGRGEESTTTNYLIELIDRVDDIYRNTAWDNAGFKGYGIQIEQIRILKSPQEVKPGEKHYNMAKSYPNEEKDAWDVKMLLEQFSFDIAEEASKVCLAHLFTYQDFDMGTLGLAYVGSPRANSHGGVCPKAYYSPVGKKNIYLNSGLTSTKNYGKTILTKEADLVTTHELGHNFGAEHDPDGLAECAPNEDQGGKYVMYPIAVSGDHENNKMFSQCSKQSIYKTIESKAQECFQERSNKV

With `CCOc1cc(F)ccc1-c1ccc(CNC(=O)[C@H](O)[C@@H](O)C(=O)N2CCCC2)nc1` [Compound 2349], the Ki is less than 20 nM.

For `O=C(NCc1ccc(-c2ccccc2OC(F)(F)F)cn1)[C@H](O)[C@@H](O)C(=O)N1CCCC1` [Compound 2350], the inhibition constant (Ki) is less than 20 nM.

Turning to `O=C(NC[C@H]1CC[C@H](n2c(C(F)(F)F)nc3ccccc32)CC1)[C@H](O)[C@@H](O)C(=O)N1CCC[C@@H]1c1ccccc1` [Compound 2351], the Ki was less than 20 nM.

As for `O=C(NC[C@H]1CC[C@@H](n2c(C(F)(F)F)nc3ccccc32)CC1)[C@H](O)[C@@H](O)C(=O)N1CCC[C@@H]1c1ccccc1` [Compound 2352], the Ki is less than 20 nM.

Turning to `C[C@@H](NC(=O)[C@](C)(O)[C@@H](O)C(=O)N1Cc2cccnc2C1)c1ccc(-c2cccc(OCCC3CCCCC3)c2)cc1` [Compound 2353A], the inhibition constant (Ki) fell in the range of 100 to 1000 nM.

Turning to `C[C@@H](NC(=O)[C@H](O)[C@@H](O)C(=O)N1Cc2cccnc2C1)c1ccc(-c2cccc(OCCC3CCCCC3)c2)cc1` [Compound 2353B], the Ki fell in the range of 20 to 100 nM.

On to `C[C@@H](NC(=O)[C@](C)(O)[C@@H](O)C(=O)N1Cc2cccnc2C1)c1ccc(-n2cccc2C#N)cc1` [Compound 2354], for which the Ki was 20 to 100 nM.

Regarding `COc1cc([C@@H](C)NC(=O)[C@](C)(O)[C@@H](O)C(=O)N2Cc3cccnc3C2)ccc1-n1cccn1` [Compound 2355], the Ki was less than 20 nM.

In the case of `COc1cc([C@@H](C)NC(=O)[C@](C)(O)[C@@H](O)C(=O)N2Cc3cccnc3C2)ccc1Br` [Compound 2356], the Ki is greater than 1000 nM.

Take `C[C@@H](NC(=O)[C@](C)(O)[C@@H](O)C(=O)N1Cc2cccnc2C1)c1ccc(-n2cccn2)c(OCc2ccccc2)c1` [Compound 2357]: the Ki is less than 20 nM.

`C[C@@H](NC(=O)[C@](C)(O)[C@@H](O)C(=O)N1Cc2cccnc2C1)c1ccc(-n2cccn2)c(OCC2CC2)c1` [Compound 2358]: the inhibitory constant (Ki) fell in the range of 100 to 1000 nM.

In the case of `CC#CCOc1cc([C@@H](C)NC(=O)[C@H](O)[C@@H](O)C(=O)N2Cc3cccnc3C2)ccc1-n1cccn1` [Compound 2359], the inhibition constant Ki is less than 20 nM.

`CC#CCOc1cc([C@@H](C)NC(=O)[C@](C)(O)[C@@H](O)C(=O)N2Cc3cccnc3C2)ccc1-n1cccn1` [Compound 2360]: the Ki is less than 20 nM.

Take `Cn1c(Cc2ccccc2)cnc1[C@H](O)[C@@H](O)C(=O)NCC1CCN(c2ccc(F)cc2C#N)CC1` [Compound 2365]: the Ki lay in the range of 100 to 1000 nM.

For the molecule `Cn1c(Br)cnc1[C@H](O)[C@@H](O)C(=O)NCC1CCN(c2ccc(F)cc2C#N)CC1` [Compound 2372], the inhibitory constant (Ki) is greater than 1000 nM.

As to `Cn1cnnc1[C@H](O)[C@@H](O)C(=O)NCC1CCN(c2ccc(F)cc2C#N)CC1` [Compound 2376], the Ki is greater than 1000 nM.

Consider `N#Cc1cc(F)ccc1N1CCC(CNC(=O)[C@H](O)[C@@H](O)c2ccccn2)CC1` [Compound 2382], for which the Ki is greater than 1000 nM.

Turning to `N#Cc1cc(F)ccc1N1CCC(CNC(=O)[C@H](O)[C@@H](O)c2cnccn2)CC1` [Compound 2387], the Ki was greater than 1000 nM.

Turning to `O=C([C@H](O)[C@@H](O)c1cncc(-c2ccccc2)n1)N1Cc2ccccc2C1` [Compound 2391], the Ki is greater than 1000 nM.

`O=C([C@H](O)[C@@H](O)c1cncc(N2CCN(c3ccccc3)CC2)n1)N1Cc2ccccc2C1` [Compound 2393]: the Ki is greater than 1000 nM.

Regarding `Cn1c([C@H](O)[C@@H](O)C(=O)NCC2CCN(c3ccc(F)cc3C#N)CC2)nc2ccccc21` [Compound 2394], the inhibition constant (Ki) was greater than 1000 nM.

As for `Cn1ccnc1[C@H](O)[C@@](C)(O)C(=O)NCC1CCN(c2ccc(F)cc2C#N)CC1` [Compound 2395], the Ki fell in the range of 100 to 1000 nM.

As to `Cn1cc(-c2ccccc2)nc1[C@H](O)[C@@H](O)C(=O)NCC1CCN(c2ccc(F)cc2C#N)CC1` [Compound 2396], the Ki was greater than 1000 nM.

Consider `Cn1ccnc1[C@H](O)[C@@H](O)C(=O)NCc1ccc(-n2cccn2)cc1` [Compound 2397], for which the Ki was greater than 1000 nM.

Take `O=C(NCc1ccc(-c2ccccc2OC(F)(F)F)cn1)[C@H](O)[C@@H](O)c1ccccn1` [Compound 2398]: the Ki is greater than 1000 nM.
